The nature of data set [1]: Biodistribution of 67Ga-radiolabeled peptides. The note with it: in vivo, iv, 100 uCi, total radioactivity, i.v. tail vein, mean ± SD, n = 3; for tissue uptake at 1 h: female, CD1, mouse, 1 h post injection. On the set-up: species or system mouse. The protocol:
All animal experiments were performed in compliance with national and EU legislation for good practices on laboratory animal science. The animals were housed in a temperature and humidity-controlled environment with a 12 h light/12 h dark schedule. Biodistribution of radiolabeled peptides was performed on 7 weeks old CD1 female mice.
Animals were intravenously injected into the tail vein with 100 µL of a 25 µM saline solution of the ^67Ga-peptide with a radioactivity around 100 µCi. The mice were euthanized by cervical dislocation at 2 min and 1 h after injection. The dose administered and the radioactivity in the euthanized animals was measured using a dose calibrator (Carpintec CRC-15W, Ramsey, USA). The difference between the radioactivity in the injected and the euthanized animals was assumed to be due to excretion. Brain and tissues of interest without previous perfusion were dissected, washed, and weighed, and their radioactivity was measured using a γ counter (Hidex AMG, Hidex, Turku, Finland). The uptake in the brain and tissues of interest was calculated and expressed as a percentage of injected radioactivity dose per gram of tissue (% ID/g).

Data set [2] is described as follows: Cytotoxicity, CellTiter-Blue cell viability assay. Format: cell-based. Particulars: human; CellTiter-Blue, peptides 0.05–100.0 µM, 24 h; triplicates, three independent cultures; read-out: Cytotoxicity IC50 HeLa. As for the experimental part: (§1) Peptide cytotoxicity was determined using the CellTiter-Blue® cell viability assay, following a described protocol. Briefly, all cell lines were carefully harvested with trypsin–EDTA and seeded 10.000–20.000 cells/100 μL into 96-well clear flat-bottomed polystyrene plates (Corning, USA) for 24 h. After medium removal, cells were washed twice with 1X PBS, and 100 µL of previously diluted peptides (range from 0.05–100.0 µM) in the respective medium were added to cells. Then, after 24 h, cells were washed twice with 1X PBS and 20 µL of CellTiter-Blue® Reagent (diluted in 100 µL of medium) was added to each well and incubated for 3 h in culturing conditions. The fluorescence intensity was measured using Varioskan™ LUX multimode microplate reader.
(§2) IC50 values were determined using GraphPad Prism 7.0 software using a log(inhibitor) versus normalized response. Experiments were performed in triplicates on different days using three independently grown cell cultures.

The nature of data set [3]: Cytotoxicity, CellTiter-Blue cell viability assay. The note with it: human; CellTiter-Blue, peptides 0.05–100.0 µM, 24 h; triplicates, three independent cultures; read-out: Cytotoxicity IC50 Hs68. The format is cell-based. The protocol:
as §1, §2

Data set [4] can be described thus: Cytotoxicity, CellTiter-Blue cell viability assay. Format: cell-based. The note with it: human; CellTiter-Blue, peptides 0.05–100.0 µM, 24 h; triplicates, three independent cultures; read-out: Cytotoxicity IC50 HEK-293. As for the experimental part: as §1, §2
The next data set has as its system HBEC-5i cells. Nature of the data set: Translocation across in vitro BBB model (HBEC-5i monolayer, transwell). The note with it: HBEC-5i monolayer on AF-coated PET transwell inserts (1.0 µm pores), 8 days, CF-peptide 5.0 µM in DMEM:F12 without phenol red added to apical side, 24 h, fluorescence, plate reader, mean ± SD, triplicates of three independent experiments. The format is in vitro ADME, human. As for the experimental part: Throughout 8 days, medium was changed every other day. On the day of the experiment, cells were washed twice with 1X PBS (137.0 mM NaCl, 2.7 mM KCl, 10.0 mM Na2HPO4, and 1.8 mM KH2PO4), and once with DMEM:F12 without phenol red. Then, CF-peptides (5.0 μM, in DMEM:F12 without phenol red) were added to the apical side of the in vitro BBB model and incubated for 24 h. Finally, samples from the apical and basolateral side were collected and fluorescence intensity analyzed using a Varioskan^TM LUX multimode microplate reader (Thermo Fisher, Spain). […] Experiments were performed in triplicates on different days using three independently grown cell cultures. Seeking experimental support for our hypothesis, we have synthesized and tested in vitro the activity of ten peptides (Table 1), selected among the 14 BBBpS entries by their lowest S score in an OLS ranking.

The nature of data set [5]: Cytotoxicity, CellTiter-Blue cell viability assay. Format: cell-based. The note with it: human; CellTiter-Blue, peptides 0.05–100.0 µM, 24 h; triplicates, three independent cultures. As for the experimental part:
as §1, §2

A short description of data set [6]: Cytotoxicity, CellTiter-Blue cell viability assay. The format is cell-based. Particulars: human; read-out: Cytotoxicity IC50 HBEC-5i. As for the experimental part: as §1, §2
Data set [7] in a line: Analytical RP-HPLC retention time (used as indication of hydrophobicity). The format is physicochemical. Particulars: analytical reverse phase HPLC, UV chromatogram; free and CF-labelled peptides.

Like-named read-outs stand apart in the source and are kept apart here. Residues, ends and D or L forms follow the SMILES beside them. No end group written: not given here. Where only a bound is given, the exact number is not on record here.

Consider `CC[C@H](C)[C@H](NC(=O)CNC(=O)[C@H](CCCNC(=N)N)NC(=O)[C@H](Cc1ccc(O)cc1)NC(=O)[C@H](CS)NC(=O)[C@@H](NC(=O)[C@H](CCCNC(=N)N)NC(=O)[C@H](Cc1ccccc1)NC(=O)[C@H](CS)NC(=O)[C@H](Cc1c[nH]c2ccccc12)NC(=O)[C@@H](N)CCCCN)C(C)C)C(=O)N[C@@H](CS)C(=O)N[C@@H](Cc1ccc(O)cc1)C(=O)N[C@@H](CCCNC(=N)N)C(=O)N[C@@H](CCCNC(=N)N)C(=O)N[C@@H](CS)C(=O)N[C@@H](CCCNC(=N)N)C(N)=O` [non-BBBpS_2] (H-KWCFRVCYRGICYRRCR-NH2), for which the tissue uptake at 1 h in data set [1] (brain without perfusion, CD1 female mice, γ counter, read-out: Tissue distribution, Brain (brain uptake)) came out at 0.13 ± 0.03 %ID/g; in data set [1] (liver, CD1 mice, read-out: Tissue distribution, Liver), 22.8 ± 10.1 %ID/g. Also, the tissue uptake at 2 min in data set [1] (mouse, brain without perfusion, 2 min post injection, CD1 female mice, 100 µL of 25 µM 67Ga-peptide, γ counter, read-out: Tissue distribution, Brain (brain uptake)) worked out at 0.27 ± 0.04 %ID/g. Also, the IC50 at 24 h in data set [2] was 39.4 ± 1.8 µM; in data set [3], 26.4 ± 2.9 µM; in data set [4], 14.7 ± 1.4 µM; in data set [5], 26.9 ± 3 µM; in data set [6], 20.7 ± 1 µM. In addition, the “Translocation (%) HBEC-5i” value with HBEC-5i cells is 2.6 ± 1.2%. In addition, the “HPLC tR” value in data set [7] stood at 6.81 min.
For “AGILKRW [PepH3, well-tested BBBpS standard, reference compound]”, the “Translocation (%) HBEC-5i” value in the data set on HBEC-5i cells is on record as 54.0 ± 2.2%.
On to “KKKKQPPKPKKPKTQEKKKKQPPKPKR-NH2 [non-BBBpS_1]”, for which the IC50 at 24 h in data set [2], in data set [3], in data set [4], in data set [5] and in data set [6] was above 100 µM each time. In addition, in the data set with HBEC-5i cells, the “Translocation (%) HBEC-5i” value is reported as 20.0 ± 3.5%.
Take EEGRLYMRYYSPTTRRYG-NH2 [BBBpS_3]: the IC50 at 24 h in data set [2], in data set [3], in data set [4], in data set [5] and in data set [6] was above 100 µM throughout. The “Translocation (%) HBEC-5i” value in the data set with HBEC-5i cells was found to be 35.7 ± 3.6%.

(Values after PMC11131246, “Molecular determinants for brain targeting by peptides: a meta-analysis approach with experimental validation” (Fluids and Barriers of the CNS, 2024).)
